Several values for one entry are separate records, joined by “and”; a condition that tells them apart may be missing. Equal values may be shown once. After the bases stand the sugars from the 5' end (letter, count) and the backbone: PS all phosphorothioate, else s phosphorothioate and o phosphodiester by linkage. Methylation of C is not given here. e = 2'-O-(2-methoxyethyl) (MOE); k = constrained ethyl (cEt); d = 2'-deoxy (DNA)
Biological target: IRF4
Details: ASO

For “ACTGTTACCGATGCTT (sugars k2 d9 e3 k2, PS)”, the target mRNA inhibition (MM.1R, 1 µM) was 27% and 34%.

For “ACTGTTACCGATGCTT (sugars kkddddddddddkeke, PS)”, the target mRNA inhibition (MM.1R, 1 µM) was 30% and 48%.

In the case of “ACTGTTACCGATGCTT (sugars kkdddddddddkekek, PS)”, the target mRNA inhibition (MM.1R, 1 µM) is reported as 30% and 18%.

ACTTAAGCAAGTGGAG (sugars k3 d10 k3, PS) showed a target mRNA inhibition (SK-MEL-28, 4 µM) of 63%.

Sequence ACTTAAGCTAAACTCC (sugars k3 d10 k3, PS) has a target mRNA inhibition (SK-MEL-28, 4 µM) of 21%.

Sequence ACTTACACCCAGAAGT (sugars k3 d10 k3, PS) has a target mRNA inhibition (SK-MEL-28, 4 µM) of -10%.

Work on ACTTACAGGACTATTT (sugars k3 d10 k3, PS) yielded a target mRNA inhibition (SK-MEL-28, 4 µM) of 16%.

In the case of ACTTTGTACGGGTCTG (sugars k3 d10 k3, PS), the target mRNA inhibition (SK-MEL-28, 4 µM) is reported as 39%.

“ACTTTTAGAGAGGAGA (sugars k2 d9 e3 k2, PS)” showed a target mRNA inhibition (MM.1R, 1 µM) of 36%.

Sequence “ACTTTTAGAGAGGAGA (sugars kddddddddddkekek, PS)” has a target mRNA inhibition (MM.1R, 1 µM) of 32%.

“ACTTTTAGAGAGGAGA (sugars kkkdddddddddkeke, PS)” showed a target mRNA inhibition (MM.1R, 1 µM) of 41%.

For AGAAAACTCTAACCCT (sugars k3 d10 k3, PS), the target mRNA inhibition (SK-MEL-28, 4 µM) was 25%.

Sequence AGAAGCACTGGCATCG (sugars k3 d10 k3, PS) has a target mRNA inhibition (SK-MEL-28, 4 µM) of 37%.

In the case of AGAAGCACTGGCATTG (sugars k3 d10 k3, PS), the target mRNA inhibition (SK-MEL-28, 4 µM) is reported as 45%.

With AGACAAGTGCCCATCC (sugars k3 d10 k3, PS) the target mRNA inhibition (MM.1R, 1 µM) was 1%.

AGACAAGTGCTAGGAT (sugars k3 d10 k3, PS) gave a target mRNA inhibition (SK-MEL-28, 4 µM) of 56%.

For AGACAGATGACATGCT (sugars k3 d10 k3, PS), the target mRNA inhibition (SK-MEL-28, 4 µM) was 50%.

AGACATTACTAGATTG (sugars k3 d10 k3, PS) was tested, and the target mRNA inhibition (SK-MEL-28, 4 µM) was 66%.

Work on AGACCAATTTATGCCA (sugars k3 d10 k3, PS) yielded a target mRNA inhibition (MM.1R, 1 µM) of 7%.

With AGAGCCCCTACCTTTT (sugars k3 d10 k3, PS) the target mRNA inhibition (MM.1R, 1 µM) was -7%.

For AGATAACATGAGAGTG (sugars k3 d10 k3, PS), the target mRNA inhibition (SK-MEL-28, 4 µM) was 41%.

AGATAGGAAGCACTGG (sugars k3 d10 k3, PS) gave a target mRNA inhibition (SK-MEL-28, 4 µM) of 46%.

Sequence AGATAGTTAAGTACTT (sugars k3 d10 k3, PS) has a target mRNA inhibition (SK-MEL-28, 4 µM) of 11%.

Sequence AGATGTAAAGATAGGA (sugars k3 d10 k3, PS) has a target mRNA inhibition (SK-MEL-28, 4 µM) of 54%.

Work on AGCAAGTCGGTCCACA (sugars k3 d10 k3, PS) yielded a target mRNA inhibition (SK-MEL-28, 4 µM) of 54%.

Work on AGCAAGTGTCTAAAGT (sugars k3 d10 k3, PS) yielded a target mRNA inhibition (MM.1R, 0.0625 µM) of -1%, a target mRNA inhibition (MM.1R, 0.074 µM) of -8% and a target mRNA inhibition (MM.1R, 0.222 µM) of 6%. It also gave a target mRNA inhibition (MM.1R, 0.25 µM) of 12%, a target mRNA inhibition (MM.1R, 0.666 µM) of 11% and a target mRNA inhibition (MM.1R, 1 µM) of 22%. For the same sequence, the target mRNA inhibition (MM.1R, 2 µM) was 33%, the target mRNA inhibition (MM.1R, 4 µM) was 51% and the target mRNA inhibition (SK-MEL-28, 4 µM) was 62%.

Work on AGCAATTAGCTCTTCT (sugars k3 d10 k3, PS) yielded a target mRNA inhibition (MM.1R, 1 µM) of 11%.

AGCAGAACGAGGTAAA (sugars k3 d10 k3, PS) was tested, and the target mRNA inhibition (SK-MEL-28, 4 µM) was 70%.

With “AGCAGTGATGTCAGGT (sugars kddddddddddkekek, PS)” the target mRNA inhibition (MM.1R, 0.0625 µM) was 37%, the target mRNA inhibition (MM.1R, 0.25 µM) was 50% and the target mRNA inhibition (MM.1R, 1 µM) was 77% and 67% and 68%. For the same sequence, the target mRNA inhibition (MM.1R, 4 µM) was 84%.

In the case of “AGCAGTGATGTCAGGT (sugars kdddddddddkekeke, PS)”, the target mRNA inhibition (MM.1R, 1 µM) is reported as 26% and 36%.

“AGCAGTGATGTCAGGT (sugars kkddddddddddkeke, PS)” was tested, and the target mRNA inhibition (MM.1R, 1 µM) was 67% and 64%.

In the case of “AGCAGTGATGTCAGGT (sugars kkdddddddddkdkdk, PS)”, the target mRNA inhibition (MM.1R, 1 µM) is reported as 55% and 48%.

AGCATAAAAGGTTCCT (sugars k3 d10 k3, PS) was tested, and the target mRNA inhibition (SK-MEL-28, 4 µM) was 45%.

AGCATATTCCAACAGG (sugars k3 d10 k3, PS) was tested, and the target mRNA inhibition (MM.1R, 0.0625 µM) was -1%, the target mRNA inhibition (MM.1R, 0.074 µM) was -8% and the target mRNA inhibition (MM.1R, 0.222 µM) was -6%. The target mRNA inhibition (MM.1R, 0.25 µM) was 6%, the target mRNA inhibition (MM.1R, 0.666 µM) was 19% and the target mRNA inhibition (MM.1R, 1 µM) was 18%. For the same sequence, the target mRNA inhibition (MM.1R, 2 µM) was 32%, the target mRNA inhibition (MM.1R, 4 µM) was 58% and the target mRNA inhibition (SK-MEL-28, 4 µM) was 69%.

For AGCCACTATGGTAGGA (sugars k3 d10 k3, PS), the target mRNA inhibition (SK-MEL-28, 4 µM) was 43%.

With AGCCAGCCAGAGGTTC (sugars k3 d10 k3, PS) the target mRNA inhibition (SK-MEL-28, 4 µM) was 30%.

AGCCAGTGGCTGAAAC (sugars k3 d10 k3, PS) was tested, and the target mRNA inhibition (SK-MEL-28, 4 µM) was 21%.

Work on AGCCCCTCAGGAAATG (sugars k3 d10 k3, PS) yielded a target mRNA inhibition (SK-MEL-28, 4 µM) of 24%.

AGCCGCCGGCACAGGC (sugars k3 d10 k3, PS) gave a target mRNA inhibition (SK-MEL-28, 4 µM) of 1%.

AGCCTAGAGGTGCCTT (sugars k3 d10 k3, PS) showed a target mRNA inhibition (SK-MEL-28, 4 µM) of 41%.

In the case of AGCCTTCACGCACCAT (sugars k3 d10 k3, PS), the target mRNA inhibition (SK-MEL-28, 4 µM) is reported as 30%.

AGCGAGTCAGACAGTG (sugars k3 d10 k3, PS) showed a target mRNA inhibition (SK-MEL-28, 4 µM) of 16%.

Sequence AGCTAAACTCCTAAGT (sugars k3 d10 k3, PS) has a target mRNA inhibition (SK-MEL-28, 4 µM) of 15%.

AGCTAATGAGAGCTTC (sugars k3 d10 k3, PS) was tested, and the target mRNA inhibition (SK-MEL-28, 4 µM) was 17%.

AGCTACAAAGAGCACT (sugars k3 d10 k3, PS) gave a target mRNA inhibition (SK-MEL-28, 4 µM) of 33%.

— the OligoGym collection
